Experimental data as given in US20090275655A1, “Pharmaceutical Gallium Compositions and Methods” (priority 2008, published 2009).

Assay: intravenous infusion in a cystic fibrosis patient, concentration of ionic gallium in sputum, plasma and whole blood
Format: in vivo, human patient
Procedure: During one such treatment, this patient received an infusion of gallium citrate-nitrate over 5 days at a dose of 240 mg/day, or approximately 150 mg/m^2/day, and the concentration of ionic gallium in a deep-cough sputum specimen was then measured. The gallium concentration in the sputum was 3.2 μg/ml, or approximately 46 μmol/L, which is a concentration that is adequate to kill resistant Pseudomonas organisms in vivo. See Kaneko et al., J. Clin. Invest. 117:877-888 (2007).
Beginning about 1 month later, the same patient from Example 4 was given additional infusions of gallium citrate-nitrate at doses of 200 mg/m^2/day over 5 days, and the concentration of ionic gallium in deep-cough sputum specimens was again determined. […] The concentrations at days 5-11 are high, and even after cessation of treatment they remain levels that are believed to be therapeutic in vivo.

[1] = Treatment Number Two, 200 mg/m^2/d, end of infusion, Day 5 (verification repeat)

gallium citrate-nitrate
gallium concentration, Sputum (Treatment Number One, 150 mg/m^2/d, end of infusion, Day 5): 2.22 µg/mL | gallium concentration, Sputum (Treatment Number Two, 200 mg/m^2/d, end of infusion, Day 5): 2.13 µg/mL | gallium concentration, Whole Blood (Treatment Number Two, 200 mg/m^2/d, end of infusion, Day 5 20:00 h): 1.64 µg/mL | gallium concentration, Plasma [1]: 1.35 µg/mL | gallium concentration, Sputum [1]: 2.65 µg/mL | gallium concentration, Sputum (Treatment Number Two, Baseline (Time 0), one month after Treatment One): 0.32 µg/mL | gallium concentration, Sputum (Treatment Number Two, Post-Infusion, Day 6): 1.83 µg/mL | gallium concentration, Sputum (Treatment Number Two, Post-Infusion, Day 7): 2.04 µg/mL | gallium concentration, Sputum (Treatment Number Two, Post-Infusion, Day 9): 4.35 µg/mL | gallium concentration, Sputum (Treatment Number Two, Post-Infusion, Day 11): 4.78 µg/mL | sputum levels exceed plasma concentrations (patient, following systemic (IV) administration): roughly 2 fold
